# In patent US10597388B2, “Pyridazinone herbicides” (FMC CORPORATION, priority 2014, dated 2020):
# Assays:
# Format in all cases: in vivo
# [1] = tested on: bluegrass (annual bluegrass, Poa annua); assay: Test D controlled growth environment herbicide test, pre- and postemergence
# Procedure, shortened: (§1)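 Rating is visual, 0–100 scale (100 = complete control), made against untreated plants 14–21 d after treatment in controlled growth conditions. Postemergence sprays went onto 1- to 4-leaf plants in peat medium; preemergence sprays onto silt loam after sowing; formulation included a surfactant.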
# [2] = tested on: bromegrass, downy (downy bromegrass, Bromus tectorum); assay: as above
# Procedure, shortened: as §1
# [3] = tested on: ryegrass, Italian (Italian ryegrass, Lolium multiflorum); assay: as above
# Procedure, shortened: as §1
# [4] = tested on: speedwell (bird's-eye speedwell, Veronica persica); assay: as above
# Procedure, shortened: as §1
# corn (Zea mays) = assay: Test E greenhouse herbicide test, pre- and postemergence
# Text: (§2) Seeds of plant species selected from corn (Zea mays), soybean (Glycine max), velvetleaf (Abutilon theophrasti), lambsquarters (Chenopodium album), wild poinsettia (Euphorbia heterophylla), pigweed, palmer (palmer pigweed, Amaranthus palmeri), waterhemp (common waterhemp, Amaranthus rudis), surinam grass (Brachiaria decumbens), crabgrass, large (large crabgrass, Digitaria sanguinalis), crabgrass, Brazilian (Brazilian crabgrass, Digitaria horizontalis), panicum, fall (fall panicum, Panicum dichotomiflorum), foxtail, giant (giant foxtail, Setaria faberii), foxtail, green (green foxtail, Setaria viridis), goosegrass (Eleusine indica), johnsongrass (Sorghum halepense), ragweed (common ragweed, Ambrosia elatior), barnyardgrass (Echinochloa crus-galli), sandbur (southem sandbur, Cenchrus echinatus), arrowleaf sida (Sida rhombifolia), Italian ryegrass (Lolium multiflorum), dayflower (Virginia (VA) dayflower, Commelina virginica), field bindweed (Convolvulus arvensis), momingglory (Ipomoea coccinea), nightshade (eastern black nightshade, Solanum ptycanthum), kochia (Kochia scoparia), nutsedge, yellow (yellow nutsedge, Cyperus esculentus), horseweed (Conyza canadensis), and beggarticks (hairy beggarticks, Bidens pilosa), were planted into a silt loam soil and treated preemergence with test chemicals formulated in a non-phytotoxic solvent mixture which included a surfactant.
# (§3) At the same time, plants from these crop and weed species and also waterhemp_RES1, (ALS & Triazine resistant common waterhemp, Amaranthus rudis), and waterhemp_RES2, (ALS & HPPD resistant common waterhemp, Amaranthus rudis) were planted in pots containing Redi-Earth® planting medium (Scotts Company, 14111 Scottslawn Road, Marysville, Ohio 43041) comprising spaghnum peat moss, vermiculite, wetting agent and starter nutrients were treated with postemergence applications of test chemicals formulated in the same manner. Plants ranged in height from 2 to 18 cm for postemergence treatments (1- to 4-leaf stage). Treated plants and controls were maintained in a greenhouse for 14 to 21 d, after which time all species were compared to controls and visually evaluated. Plant response ratings, summarized in Table E, are based on a scale of 0 to 100 where 0 is no effect and 100 is complete control. A dash (-) response means no test result.
# [5] = tested on: crabgrass, Brazilian (Brazilian crabgrass, Digitaria horizontalis); assay: as above
# Text: as §2, §3
# soybean (Glycine max) = assay: as above
# Text: as §2, §3
# [6] = tested on: waterhemp (common waterhemp, Amaranthus rudis); assay: as above
# Text: as §2, §3
# [7] = Postemergence, 31 g ai/ha, scale 0 to 100 (0 no effect, 100 complete control)
# [8] = Postemergence, 125 g ai/ha, visual rating on scale 0 (no effect) to 100 (complete control), 14 to 21 d
# [9] = Postemergence, 250 g ai/ha, scale 0 to 100 (0 no effect, 100 complete control)
# [10] = postemergence, 62 g ai/ha, scale 0 to 100, 0 no effect, 100 complete control
# [11] = 62 g ai/ha, Preemergence, scale 0 to 100 (0 no effect, 100 complete control)
# [12] = Preemergence, 31 g ai/ha, scale 0 to 100, 0 no effect, 100 complete control
# [13] = Preemergence, 125 g ai/ha, visual, scale 0 no effect to 100 complete control
# [14] = 125 g ai/ha, Preemergence, scale 0 to 100 (0 no effect, 100 complete control)
# [15] = Preemergence, 62 g ai/ha, scale 0 to 100 (0 no effect, 100 complete control)
# [16] = Preemergence, 125 g ai/ha, scale 0 to 100 (0 no effect, 100 complete control)
# [17] = Preemergence, 250 g ai/ha, scale 0 to 100, 0 no effect, 100 complete control
# [18] = 62 g ai/ha, Postemergence, scale 0 to 100 (0 no effect, 100 complete control)
# [19] = 125 g ai/ha, Postemergence, scale 0 to 100 (0 no effect, 100 complete control)
# [20] = 250 g ai/ha, Postemergence, scale 0 to 100 (0 no effect, 100 complete control)
# [21] = Postemergence, 31 g ai/ha, visual, scale 0 no effect to 100 complete control
# [22] = Preemergence, 250 g ai/ha, visual, scale 0 no effect to 100 complete control
structure (smiles),measurement,setting,value
Cc1cc(C)c2ccccc2c1-c1c(O)c(C)nn(C)c1=O [Compound 21],Bluegrass plant response rating,[1]; [7],20
same,"Plant response rating, Bluegrass",[1]; [8],35
same,"Plant response rating, Bluegrass",[1]; [9],50
same,"Plant response rating, Bluegrass",[1]; [10],30
same,"Bromegrass, Downy plant response rating",[2]; [7],45
same,"Plant response rating, Bromegrass, Downy",[2]; [8],75
same,"Plant response rating, Bromegrass, Downy",[2]; [9],80
same,"Plant response rating, Bromegrass, Downy",[2]; [10],60
same,"Ryegrass, Italian plant response rating",[3]; [7],80
same,"Plant response rating, Ryegrass, Italian",[3]; [8],85
same,"Plant response rating, Ryegrass, Italian",[3]; [9],80
same,"Plant response rating, Ryegrass, Italian",[3]; [10],80
same,Speedwell plant response rating,[4]; [7],100
same,"Plant response rating, Speedwell",[4]; [8],100
same,"Plant response rating, Speedwell",[4]; [9],100
same,"Plant response rating, Speedwell",[4]; [10],100
same,"Plant response rating, Corn",corn (Zea mays); [11],0
same,"Plant response rating, Corn",corn (Zea mays); [12],0
same,"Plant response rating, Corn",corn (Zea mays); [13],30
same,"Plant response rating, Crabgrass, Brazil",[5]; [11],98
same,"Plant response rating, Crabgrass, Brazil",[5]; [12],90
same,"Plant response rating, Crabgrass, Brazil",[5]; [13],100
same,"Plant response rating, Soybean",soybean (Glycine max); [11],35
same,"Plant response rating, Soybean",soybean (Glycine max); [14],35
same,"Plant response rating, Soybean",soybean (Glycine max); [12],35
same,"Plant response rating, Waterhemp",[6]; [11],95
same,"Plant response rating, Waterhemp",[6]; [14],100
same,"Plant response rating, Waterhemp",[6]; [12],95
Cc1cc2ccccc2c(-c2c(O)c(C)nn(C)c2=O)c1C [Compound 34],Bluegrass plant response rating,[1]; [7],10
same,"Plant response rating, Bluegrass",[1]; [8],15
same,"Plant response rating, Bluegrass",[1]; [9],20
same,"Plant response rating (scale of 0 to 100), Bluegrass","[1]; Preemergence, 31 g ai/ha",0
same,"Plant response rating, Bluegrass",[1]; [15],25
same,"Plant response rating, Bluegrass",[1]; [16],50
same,Bluegrass plant response rating,[1]; [17],60
same,"Plant response rating, Bluegrass",[1]; [10],15
same,"Bromegrass, Downy plant response rating",[2]; [7],20
same,"Plant response rating, Bromegrass, Downy",[2]; [8],40
same,"Plant response rating, Bromegrass, Downy",[2]; [9],70
same,"Plant response rating (scale of 0 to 100), Bromegrass, Downy","[2]; Preemergence, 31 g ai/ha",0
same,"Plant response rating, Bromegrass, Downy",[2]; [15],50
same,"Plant response rating, Bromegrass, Downy",[2]; [16],50
same,"Plant response rating, Bromegrass, Downy",[2]; [17],80
same,"Plant response rating, Bromegrass, Downy",[2]; [10],30
same,"Ryegrass, Italian plant response rating",[3]; [7],90
same,"Plant response rating, Ryegrass, Italian",[3]; [8],95
same,"Plant response rating, Ryegrass, Italian",[3]; [9],95
same,"Plant response rating (scale of 0 to 100), Ryegrass, Italian","[3]; Preemergence, 31 g ai/ha",75
same,"Plant response rating, Ryegrass, Italian",[3]; [15],95
same,"Plant response rating, Ryegrass, Italian",[3]; [16],100
same,"Plant response rating, Ryegrass, Italian",[3]; [17],100
same,"Plant response rating, Ryegrass, Italian",[3]; [10],95
same,Speedwell plant response rating,[4]; [7],65
same,"Plant response rating, Speedwell",[4]; [8],100
same,"Plant response rating, Speedwell",[4]; [9],100
same,"Plant response rating (scale of 0 to 100), Speedwell","[4]; Preemergence, 31 g ai/ha",100
same,"Plant response rating, Speedwell",[4]; [15],100
same,"Plant response rating, Speedwell",[4]; [16],100
same,"Plant response rating, Speedwell",[4]; [17],100
same,"Plant response rating, Speedwell",[4]; [10],75
same,"Plant response rating, Corn",corn (Zea mays); [18],0
same,"Plant response rating, Corn",corn (Zea mays); [11],0
same,"Plant response rating, Corn",corn (Zea mays); [19],0
same,"Plant response rating, Corn",corn (Zea mays); [20],5
same,"Plant response rating, Corn",corn (Zea mays); [21],0
same,"Plant response rating, Corn",corn (Zea mays); [12],0
same,"Plant response rating, Corn",corn (Zea mays); [13],0
same,"Plant response rating, Corn",corn (Zea mays); [22],0
same,"Plant response rating, Crabgrass, Brazil",[5]; [18],40
same,"Plant response rating, Crabgrass, Brazil",[5]; [11],10
same,"Plant response rating, Crabgrass, Brazil",[5]; [19],50
same,"Plant response rating, Crabgrass, Brazil",[5]; [20],50
same,"Plant response rating, Crabgrass, Brazil",[5]; [21],40
same,"Plant response rating, Crabgrass, Brazil",[5]; [12],0
same,"Plant response rating, Crabgrass, Brazil",[5]; [13],80
same,"Plant response rating, Crabgrass, Brazil",[5]; [22],80
same,"Plant response rating, Soybean",soybean (Glycine max); [18],40
same,"Plant response rating, Soybean",soybean (Glycine max); [11],35
same,"Plant response rating, Soybean",soybean (Glycine max); [19],70
same,"Plant response rating, Soybean",soybean (Glycine max); [14],15
same,"Plant response rating, Soybean",soybean (Glycine max); [20],60
same,"Plant response rating, Soybean",soybean (Glycine max); [21],35
same,"Plant response rating, Soybean",soybean (Glycine max); [12],0
same,"Plant response rating, Soybean",soybean (Glycine max); [22],0
same,"Plant response rating, Waterhemp",[6]; [18],85
same,"Plant response rating, Waterhemp",[6]; [11],100
same,"Plant response rating, Waterhemp",[6]; [19],85
same,"Plant response rating, Waterhemp",[6]; [14],100
same,"Plant response rating, Waterhemp",[6]; [20],90
same,"Plant response rating, Waterhemp",[6]; [21],70
same,"Plant response rating, Waterhemp",[6]; [12],100
same,"Plant response rating, Waterhemp",[6]; [22],100
